From paper PMC9570490, “Novel Morpholine-Bearing Quinoline Derivatives as Potential Cholinesterase Inhibitors: The Influence of Amine, Carbon Linkers and Phenylamino Groups” (International Journal of Molecular Sciences, 2022) come the findings set out here.

Experiment [1] deals with T1, AChE (EC 3.1.1.7, from electric eel) (Electrophorus electricus, UniProt O42275).
T1 construct: purchased Sigma-Aldrich
Nature of the experiment: biochemical. The conditions noted are these: for IC50: means ± SD, at least three independents. How it is done:
(§1) AChE and BChE inhibitory activities of compounds were determined by using a modified Ellman’s method. AChE (EC 3.1.1.7, from electric eel), BChE (EC 3.1.1.8, from horse serum), 5,5′-dithiobis(2nitrobenzoic acid) (DTNB), acetylthiocholine iodide (ATCI) and butyrylthiocholine iodide (BTCI) were purchased from Sigma-Aldrich. The reaction mixture contained 140 μL of 100 mM sodium phosphate buffer (pH 8.0), the enzyme solution (either 0.05 U/mL of AChE, 20 μL; or 0.05 U/mL of BChE, 20 μL), and test compound (20 μL). Assayed solutions of test compounds were pre-incubated with corresponding ChE at 25 °C for 15 min. The reaction was initiated by the addition of 10 μL of 10 mM DTNB and 10 μL of 7.5 mM substrate (ATCI or BTCI). The activity was determined by measuring the increase in absorbance at 412 nm at 37 °C in 10 min intervals using a microplate reader. The percentage of inhibition was calculated from the measured data as follows: (Ac − Ai)/Ac × 100%, where Ai and Ac represent the change in the absorbance in the presence of inhibitor and without inhibitor, respectively.

For experiment [2], the target named is T2, BChE (EC 3.1.1.8, from horse serum) (Equus caballus, UniProt P81908).
T2 construct: BChE (EC 3.1.1.8, from horse serum); purchased Sigma-Aldrich; host or cells: horse serum
Kind of experiment: biochemical. Particulars: means ± SD, at least three independents. How it is done: as §1

Experiment [3] is described as follows: ABTS radical-scavenging assay. How it is done:
ABTS radical-scavenging activity was measured by using the modified method. The test compound was dissolved in ethanol as 1.0 mg/mL, 0.5 mg/mL, 0.25 mg/mL, 0.125 mg/mL, 0.0625 mg/mL, and 0.03125 mg/mL. Similarly, the ethanol solution of Trolox with the same concentration gradient was prepared as a positive control. ABTS solution at a concentration of 7 mM and potassium persulfate solution at a concentration of 2.45 mM with distilled water were also prepared. The ABTS solution and the potassium persulfate solution were mixed in equal amounts, and then placed in the dark and protected from light for 12 h. The ABTS standard solution was diluted with ethanol until the absorbance value at 734 nm was in the range of 0.7 ± 0.05. Then, 3900 µL of ABTS cation solution was mixed with 100 µL of test compound at different concentrations. The samples were kept in the dark for 10 min at room temperature and absorption was measured at 734 nm on a spectrophotometer. The percentage of ABTS radical-scavenging activity was calculated as follows: (Ac−Ai)/Ac × 100%, where Ai and Ac represented the change in absorbance in the presence and absence of the test sample, respectively.

Molecules are shown by their SMILES. A value given as a limit tells only on which side of the number the result lay.

T2 sequence (P81908 whole entry): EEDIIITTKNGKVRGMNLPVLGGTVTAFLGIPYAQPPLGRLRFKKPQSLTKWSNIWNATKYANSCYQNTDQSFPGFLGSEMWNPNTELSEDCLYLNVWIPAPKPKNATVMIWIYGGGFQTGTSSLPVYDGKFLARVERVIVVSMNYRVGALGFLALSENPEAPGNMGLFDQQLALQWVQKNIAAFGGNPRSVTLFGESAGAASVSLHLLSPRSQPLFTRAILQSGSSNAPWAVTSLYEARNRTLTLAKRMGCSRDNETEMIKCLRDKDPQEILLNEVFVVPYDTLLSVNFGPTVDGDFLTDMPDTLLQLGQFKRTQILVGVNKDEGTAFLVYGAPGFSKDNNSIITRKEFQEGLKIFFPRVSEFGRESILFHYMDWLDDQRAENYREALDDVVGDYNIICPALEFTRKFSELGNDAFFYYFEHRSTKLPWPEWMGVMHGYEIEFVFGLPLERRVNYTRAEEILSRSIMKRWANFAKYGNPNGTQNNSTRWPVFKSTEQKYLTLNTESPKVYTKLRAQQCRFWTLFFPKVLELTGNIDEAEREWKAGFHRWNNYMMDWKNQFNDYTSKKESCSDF
T1 sequence (O42275 24-633): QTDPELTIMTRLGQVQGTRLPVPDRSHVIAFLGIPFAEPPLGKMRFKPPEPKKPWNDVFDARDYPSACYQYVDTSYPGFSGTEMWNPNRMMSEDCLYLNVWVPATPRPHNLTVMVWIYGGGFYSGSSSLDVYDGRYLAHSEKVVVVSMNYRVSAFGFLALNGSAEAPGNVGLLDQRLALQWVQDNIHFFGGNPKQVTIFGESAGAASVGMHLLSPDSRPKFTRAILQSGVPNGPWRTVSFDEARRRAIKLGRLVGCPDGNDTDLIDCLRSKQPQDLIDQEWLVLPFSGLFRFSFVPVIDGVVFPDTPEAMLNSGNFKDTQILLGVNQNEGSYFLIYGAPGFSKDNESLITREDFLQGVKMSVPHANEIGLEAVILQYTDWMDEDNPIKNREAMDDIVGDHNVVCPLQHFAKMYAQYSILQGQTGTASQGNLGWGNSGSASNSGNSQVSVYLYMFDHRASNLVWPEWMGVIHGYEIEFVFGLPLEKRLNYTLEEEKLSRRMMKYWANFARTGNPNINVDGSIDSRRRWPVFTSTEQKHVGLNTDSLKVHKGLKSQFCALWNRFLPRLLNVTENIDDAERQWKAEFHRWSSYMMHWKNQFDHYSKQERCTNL

On to `COc1cc2c(Nc3ccccc3Cl)c([N+](=O)[O-])cnc2cc1OCCCN1CCOCC1` [11b, 6-Methoxy-7-(3-Morpholinopropoxy)-3-Nitro-4-(2-Chlorophenylamino)-Quinoline], for which the “SI for AChE = IC50 BChE/IC50 AChE” value in experiment [1] is listed as 10.42. Moreover, the IC50 in experiment [1] stood at 12.5 ± 0.21 µM; in experiment [2] it was 130 ± 4.62 µM.
With `COc1cc2c(Nc3cccc(Cl)c3)c([N+](=O)[O-])cnc2cc1OCCCN1CCOCC1` [11c, 6-Methoxy-7-(3-Morpholinopropoxy)-3-Nitro-4-(3-Chlorophenylamino)-Quinoline], in experiment [1], the “SI for AChE = IC50 BChE/IC50 AChE” value is 3.55 and the midpoint of inhibition, the IC50, lay at 32.4 ± 0.16 µM. The IC50 in experiment [2] stood at 114 ± 5.36 µM.
In the same order, the values of `COc1cc2c(Nc3ccc(Cl)cc3)c([N+](=O)[O-])cnc2cc1OCCCN1CCOCC1` [11d, 6-Methoxy-7-(3-Morpholinopropoxy)-3-Nitro-4-(4-Chlorophenylamino)-Quinoline] are 0.92, 88.7 ± 1.1 µM and 82.4 ± 3.06 µM.
For the compound `COc1cc2c(Nc3ccc(O)cc3)c([N+](=O)[O-])cnc2cc1OCCCN1CCOCC1` [11e, 6-Methoxy-7-(3-Morpholinopropoxy)-3-Nitro-4-(4-Hydroxylphenylamino)-Quinoline], the “SI for AChE = IC50 BChE/IC50 AChE” value in experiment [1] is more than 4.35. For the same compound, the IC50 in experiment [1] is 34.47 ± 0.09 µM; in experiment [2], more than 150 µM; in experiment [3] it was 26.4 ± 3.28 µM. Besides, the “ABTS radical-scavenging IC50” value in experiment [3] worked out at 12.01 ± 1.49 µg/mL.
As for `COc1ccc(Nc2c([N+](=O)[O-])cnc3cc(OCCCN4CCOCC4)c(OC)cc23)cc1` [11f, 6-Methoxy-7-(3-Morpholinopropoxy)-3-Nitro-4-(4-Methoxyphenylamino)-Quinoline], the “SI for AChE = IC50 BChE/IC50 AChE” value in experiment [1] worked out at 7.54. For the same compound, the IC50 in experiment [1] turned out to be 12.8 ± 0.55 µM; in experiment [2] it was 96.6 ± 4.75 µM; in experiment [3] it was 9.07 ± 1.34 µM. The “ABTS radical-scavenging IC50” value in experiment [3] was 4.25 ± 0.63 µg/mL.
For the compound `COc1cc2c(Nc3ccccc3Cl)c([N+](=O)[O-])cnc2cc1OCCN1CCOCC1` [11h, 6-Methoxy-7-(2-Morpholinoethoxy)-3-Nitro-4-(2-Chlorophenylamino)-Quinoline], in experiment [1], the “SI for AChE = IC50 BChE/IC50 AChE” value turned out to be 12.55 and 6.46 ± 0.77 µM corresponded to half-maximal inhibition (IC50). Besides, in experiment [2], inhibition was half-maximal at 81.1 ± 4.03 µM (IC50).
In the same order, the values of `COc1cc2c(Nc3cccc(Cl)c3)c([N+](=O)[O-])cnc2cc1OCCN1CCOCC1` [11i, 6-Methoxy-7-(2-Morpholinoethoxy)-3-Nitro-4-(3-Chlorophenylamino)-Quinoline] are 11.08, 10 ± 0.52 µM and 111 ± 5.59 µM.
Consider `COc1cc2c(Nc3ccc(Cl)cc3)c([N+](=O)[O-])cnc2cc1OCCN1CCOCC1` [11j, 6-Methoxy-7-(2-Morpholinoethoxy)-3-Nitro-4-(4-Chlorophenylamino)-Quinoline], for which, in experiment [1], the “SI for AChE = IC50 BChE/IC50 AChE” value is reported as 8.90 and the IC50 amounted to 8.63 ± 0.4 µM. In addition, the midpoint of inhibition in experiment [2], the IC50, lay at 76.8 ± 3.76 µM.
For `COc1cc2c(Nc3ccc(O)cc3)c([N+](=O)[O-])cnc2cc1OCCN1CCOCC1` [11k, 6-Methoxy-7-(2-Morpholinoethoxy)-3-Nitro-4-(4-Hydroxylphenylamino)-Quinoline], in experiment [1], the “SI for AChE = IC50 BChE/IC50 AChE” value is more than 8.11 and the midpoint of inhibition, the IC50, lay at 18.5 ± 1.74 µM. This compound also came in with an IC50 in experiment [2] of more than 150 µM. Also, in experiment [3], the “ABTS radical-scavenging IC50” value worked out at 5.75 ± 1.37 µg/mL.
Turning to `COc1ccc(Nc2c([N+](=O)[O-])cnc3cc(OCCN4CCOCC4)c(OC)cc23)cc1` [11l, 6-Methoxy-7-(2-Morpholinoethoxy)-3-Nitro-4-(4-Methoxyphenyamino)-Quinoline], in experiment [1], the “SI for AChE = IC50 BChE/IC50 AChE” value came to 7.03 and the IC50 came out at 9.08 ± 0.53 µM. The same compound returned an IC50 in experiment [2] of 63.9 ± 2.87 µM. For the same compound, in experiment [3], the “ABTS radical-scavenging IC50” value is 2.75 ± 0.53 µg/mL and the concentration for half-maximal inhibition (IC50) was found to be 6.05 ± 1.17 µM.
Regarding `COc1cc2c(Nc3ccccc3)c([N+](=O)[O-])cnc2cc1OCCCCN1CCOCC1` [11m, 6-Methoxy-7-(4-Morpholinobutoxy)-3-Nitro-4-Phenylamino-Quinoline], in experiment [1], the “SI for AChE = IC50 BChE/IC50 AChE” value is given as more than 11.24 and half-maximal inhibition (IC50) was put at 13.34 ± 0.07 µM. The compound also displayed a concentration for half-maximal inhibition (IC50) in experiment [2] of more than 150 µM.
Taken in the same sequence, the figures for `COc1cc2c(Nc3ccccc3Cl)c([N+](=O)[O-])cnc2cc1OCCCCN1CCOCC1` [11n, 6-Methoxy-7-(4-Morpholinobutoxy)-3-Nitro-4-(2-Chlorophenylamino)-Quinoline] were more than 1.75, 85.57 ± 0.04 µM and more than 150 µM.
Taken in the same sequence, the figures for `COc1cc2c(Nc3cccc(Cl)c3)c([N+](=O)[O-])cnc2cc1OCCCCN1CCOCC1` [11o, 6-Methoxy-7-(4-Morpholinobutoxy)-3-Nitro-4-(3-Chlorophenylamino)-Quinoline] were less than 0.77, more than 150 µM and 116 ± 5.36 µM.
Taken in the same sequence, the figures for `COc1cc2c(Nc3ccc(Cl)cc3)c([N+](=O)[O-])cnc2cc1OCCCCN1CCOCC1` [11p, 6-Methoxy-7-(4-Morpholinobutoxy)-3-Nitro-4-(4-Chlorophenylamino)-Quinoline] were 1.08, 90.46 ± 0.06 µM and 98.1 ± 0.02 µM.
With `COc1cc2c(Nc3ccc(O)cc3)c([N+](=O)[O-])cnc2cc1OCCCCN1CCOCC1` [11q, 6-Methoxy-7-(4-Morpholinobutoxy)-3-Nitro-4-(4-Hydroxyphenylamino)-Quinoline], in experiment [1], the “SI for AChE = IC50 BChE/IC50 AChE” value is listed as more than 4.07 and the IC50 was 36.8 ± 0.45 µM. Moreover, the IC50 in experiment [2] is more than 150 µM. In experiment [3], the “ABTS radical-scavenging IC50” value was found to be 26.12 ± 2.13 µg/mL and inhibition was half-maximal at 55.8 ± 4.55 µM (IC50).
Taken in the same sequence, the figures for `COc1ccc(Nc2c([N+](=O)[O-])cnc3cc(OCCCCN4CCOCC4)c(OC)cc23)cc1` [11r, 6-Methoxy-7-(4-Morpholinobutoxy)-3-Nitro-4-(4-Methoxyphenylamino)-Quinoline] were 5.65, 18.9 ± 0.51 µM, 106 ± 1.16 µM, 11.25 ± 1.27 µg/mL and 23.3 ± 2.63 µM.
With `COc1cc2c(Nc3ccccc3Cl)c(N)cnc2cc1OCCCN1CCOCC1` [12b, 6-Methoxy-7-(3-Morpholinopropoxy)-3-Amino-4-(2-Chlorophenylamino)-Quinoline], in experiment [1], the “SI for AChE = IC50 BChE/IC50 AChE” value turned out to be 3.01 and it took 43.3 ± 0.68 µM to reach half-maximal inhibition (IC50). Further, the half-inhibitory concentration (IC50) in experiment [2] amounted to 130 ± 3.76 µM.
Consider `COc1cc2c(Nc3ccc(Cl)cc3)c(N)cnc2cc1OCCCN1CCOCC1` [12d, 6-Methoxy-7-(3-Morpholinopropoxy)-3-Amino-4-(4-Chlorophenylamino)-Quinoline], for which the “SI for AChE = IC50 BChE/IC50 AChE” value in experiment [1] is on record as 6.63. Further, the IC50 in experiment [1] was 21.84 ± 0.2 µM; in experiment [2] it was 145 ± 4.25 µM.
Take `Cc1c(C)c2c(c(C)c1O)CCC(C)(C(=O)O)O2` (stereo not shown) [Trolox, reference compound]: in experiment [3], the “ABTS radical-scavenging IC50” value is 2.76 ± 0.19 µg/mL and half-maximal inhibition (IC50) required 11 ± 0.76 µM.
